The record followed here is ChEMBL document CHEMBL5653615 (J Biol Chem, 2013).

The target in assay [1] is Activated CDC42 kinase 1 (Homo sapiens) (UniProt Q07912). Kind of assay: Inhibition of human ACK1 at 500 nM by HotSpot assay relative to control.
Assay [2] addresses Tyrosine-protein kinase Blk (Homo sapiens) (UniProt P51451). Kind of assay: Inhibition of human BLK at 500 nM by HotSpot assay relative to control.
The target in assay [3] is Dual specificity protein kinase CLK2 (Homo sapiens) (UniProt P49760). Kind of assay: Inhibition of human CLK2 at 500 nM by HotSpot assay relative to control.
Assay [4] concerns the target T1, Discoidin domain-containing receptor 2 (Homo sapiens) (UniProt Q16832).
T1 sequence (whole entry): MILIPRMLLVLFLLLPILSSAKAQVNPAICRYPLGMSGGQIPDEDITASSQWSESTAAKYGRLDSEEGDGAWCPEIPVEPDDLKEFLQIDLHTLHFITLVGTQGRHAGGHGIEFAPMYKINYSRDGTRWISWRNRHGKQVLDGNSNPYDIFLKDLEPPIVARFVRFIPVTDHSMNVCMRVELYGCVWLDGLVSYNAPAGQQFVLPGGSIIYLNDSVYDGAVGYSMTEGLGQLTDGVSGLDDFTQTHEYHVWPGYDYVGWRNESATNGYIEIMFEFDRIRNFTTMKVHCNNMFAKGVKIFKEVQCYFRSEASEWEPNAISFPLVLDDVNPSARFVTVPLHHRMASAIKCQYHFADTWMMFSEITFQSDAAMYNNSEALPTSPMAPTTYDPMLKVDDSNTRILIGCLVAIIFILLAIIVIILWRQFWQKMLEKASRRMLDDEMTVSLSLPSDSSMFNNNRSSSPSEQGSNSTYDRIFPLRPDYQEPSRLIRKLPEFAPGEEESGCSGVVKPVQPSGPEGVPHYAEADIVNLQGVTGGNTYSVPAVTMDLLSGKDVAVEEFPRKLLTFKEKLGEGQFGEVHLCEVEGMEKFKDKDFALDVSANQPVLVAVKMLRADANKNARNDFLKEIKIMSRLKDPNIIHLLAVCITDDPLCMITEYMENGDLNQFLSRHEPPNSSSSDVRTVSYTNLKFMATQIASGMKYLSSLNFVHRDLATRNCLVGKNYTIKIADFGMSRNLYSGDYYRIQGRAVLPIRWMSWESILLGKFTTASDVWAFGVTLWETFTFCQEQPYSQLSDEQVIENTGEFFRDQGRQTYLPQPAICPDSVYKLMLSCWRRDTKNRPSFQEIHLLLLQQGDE
Kind of assay: Inhibition of human DDR2 at 500 nM by HotSpot assay relative to control.

For assay [5], the target named is T2, Homeodomain-interacting protein kinase 4 (Homo sapiens) (UniProt Q8NE63).
T2 sequence (whole entry): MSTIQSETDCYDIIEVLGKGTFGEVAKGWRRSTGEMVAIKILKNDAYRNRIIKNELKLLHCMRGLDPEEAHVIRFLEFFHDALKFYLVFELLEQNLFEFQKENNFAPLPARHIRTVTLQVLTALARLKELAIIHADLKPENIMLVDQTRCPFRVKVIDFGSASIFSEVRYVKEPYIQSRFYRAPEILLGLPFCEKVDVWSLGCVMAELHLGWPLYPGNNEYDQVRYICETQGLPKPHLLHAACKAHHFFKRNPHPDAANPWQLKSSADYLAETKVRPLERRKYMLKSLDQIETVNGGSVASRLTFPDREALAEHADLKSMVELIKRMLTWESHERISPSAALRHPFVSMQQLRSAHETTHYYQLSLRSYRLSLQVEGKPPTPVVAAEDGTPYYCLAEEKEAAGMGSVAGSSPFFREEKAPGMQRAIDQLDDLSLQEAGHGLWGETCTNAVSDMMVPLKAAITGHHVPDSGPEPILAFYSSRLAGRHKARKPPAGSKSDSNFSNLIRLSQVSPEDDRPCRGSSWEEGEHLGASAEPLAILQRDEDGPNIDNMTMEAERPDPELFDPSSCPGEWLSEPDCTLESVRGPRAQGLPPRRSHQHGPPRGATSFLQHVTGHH
Kind of assay: Inhibition of human HIPK4 at 500 nM by HotSpot assay relative to control.

The target of assay [6] is Tyrosine-protein kinase Lck (Homo sapiens) (UniProt P06239). Kind of assay: Inhibition of human LCK at 500 nM by HotSpot assay relative to control.
Assay [7] addresses T3, Mitogen-activated protein kinase kinase kinase 3 (Homo sapiens) (UniProt Q99759).
T3 sequence (whole entry): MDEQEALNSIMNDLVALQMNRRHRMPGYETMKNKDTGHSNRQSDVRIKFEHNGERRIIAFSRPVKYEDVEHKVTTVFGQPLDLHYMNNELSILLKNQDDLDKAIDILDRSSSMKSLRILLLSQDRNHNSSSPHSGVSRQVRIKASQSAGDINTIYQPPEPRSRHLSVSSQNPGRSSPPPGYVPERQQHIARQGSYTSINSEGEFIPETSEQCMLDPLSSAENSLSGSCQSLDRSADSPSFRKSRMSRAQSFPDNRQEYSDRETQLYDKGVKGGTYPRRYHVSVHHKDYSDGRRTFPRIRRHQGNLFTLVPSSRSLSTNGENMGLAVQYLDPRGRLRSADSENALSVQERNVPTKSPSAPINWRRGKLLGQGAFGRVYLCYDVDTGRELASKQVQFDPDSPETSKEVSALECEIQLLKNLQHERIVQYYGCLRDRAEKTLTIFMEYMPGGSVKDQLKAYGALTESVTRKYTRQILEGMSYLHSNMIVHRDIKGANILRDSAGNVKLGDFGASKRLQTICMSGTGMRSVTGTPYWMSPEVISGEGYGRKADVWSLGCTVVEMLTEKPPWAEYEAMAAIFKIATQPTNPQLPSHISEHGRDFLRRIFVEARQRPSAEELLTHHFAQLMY
Kind of assay: Inhibition of human MEKK3 at 500 nM by HotSpot assay relative to control.

Assay [8] deals with T4, Dual specificity mitogen-activated protein kinase kinase 6 (Homo sapiens) (UniProt P52564).
T4 sequence (whole entry): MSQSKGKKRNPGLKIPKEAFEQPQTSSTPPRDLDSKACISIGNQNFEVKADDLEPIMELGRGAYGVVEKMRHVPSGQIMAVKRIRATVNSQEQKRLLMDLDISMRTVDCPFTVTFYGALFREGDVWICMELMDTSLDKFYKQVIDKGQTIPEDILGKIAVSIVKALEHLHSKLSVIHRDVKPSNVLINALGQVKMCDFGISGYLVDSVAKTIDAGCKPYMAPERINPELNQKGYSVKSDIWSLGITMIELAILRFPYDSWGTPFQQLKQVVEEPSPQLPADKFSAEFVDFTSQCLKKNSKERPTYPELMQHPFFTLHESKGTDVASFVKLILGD
Kind of assay: Inhibition of human MKK6 at 500 nM by HotSpot assay relative to control.

For assay [9], the target named is Serine/threonine-protein kinase pim-3 (Homo sapiens) (UniProt Q86V86). Kind of assay: Inhibition of human PIM3 at 500 nM by HotSpot assay relative to control.
For assay [10], the target named is Rho-associated protein kinase 1 (Homo sapiens) (UniProt Q13464). Kind of assay: Inhibition of human ROCK1 at 500 nM by HotSpot assay relative to control.
Chain of Rho-associated protein kinase 1 (Homo sapiens) (Q13464 2-1354 limits assumed): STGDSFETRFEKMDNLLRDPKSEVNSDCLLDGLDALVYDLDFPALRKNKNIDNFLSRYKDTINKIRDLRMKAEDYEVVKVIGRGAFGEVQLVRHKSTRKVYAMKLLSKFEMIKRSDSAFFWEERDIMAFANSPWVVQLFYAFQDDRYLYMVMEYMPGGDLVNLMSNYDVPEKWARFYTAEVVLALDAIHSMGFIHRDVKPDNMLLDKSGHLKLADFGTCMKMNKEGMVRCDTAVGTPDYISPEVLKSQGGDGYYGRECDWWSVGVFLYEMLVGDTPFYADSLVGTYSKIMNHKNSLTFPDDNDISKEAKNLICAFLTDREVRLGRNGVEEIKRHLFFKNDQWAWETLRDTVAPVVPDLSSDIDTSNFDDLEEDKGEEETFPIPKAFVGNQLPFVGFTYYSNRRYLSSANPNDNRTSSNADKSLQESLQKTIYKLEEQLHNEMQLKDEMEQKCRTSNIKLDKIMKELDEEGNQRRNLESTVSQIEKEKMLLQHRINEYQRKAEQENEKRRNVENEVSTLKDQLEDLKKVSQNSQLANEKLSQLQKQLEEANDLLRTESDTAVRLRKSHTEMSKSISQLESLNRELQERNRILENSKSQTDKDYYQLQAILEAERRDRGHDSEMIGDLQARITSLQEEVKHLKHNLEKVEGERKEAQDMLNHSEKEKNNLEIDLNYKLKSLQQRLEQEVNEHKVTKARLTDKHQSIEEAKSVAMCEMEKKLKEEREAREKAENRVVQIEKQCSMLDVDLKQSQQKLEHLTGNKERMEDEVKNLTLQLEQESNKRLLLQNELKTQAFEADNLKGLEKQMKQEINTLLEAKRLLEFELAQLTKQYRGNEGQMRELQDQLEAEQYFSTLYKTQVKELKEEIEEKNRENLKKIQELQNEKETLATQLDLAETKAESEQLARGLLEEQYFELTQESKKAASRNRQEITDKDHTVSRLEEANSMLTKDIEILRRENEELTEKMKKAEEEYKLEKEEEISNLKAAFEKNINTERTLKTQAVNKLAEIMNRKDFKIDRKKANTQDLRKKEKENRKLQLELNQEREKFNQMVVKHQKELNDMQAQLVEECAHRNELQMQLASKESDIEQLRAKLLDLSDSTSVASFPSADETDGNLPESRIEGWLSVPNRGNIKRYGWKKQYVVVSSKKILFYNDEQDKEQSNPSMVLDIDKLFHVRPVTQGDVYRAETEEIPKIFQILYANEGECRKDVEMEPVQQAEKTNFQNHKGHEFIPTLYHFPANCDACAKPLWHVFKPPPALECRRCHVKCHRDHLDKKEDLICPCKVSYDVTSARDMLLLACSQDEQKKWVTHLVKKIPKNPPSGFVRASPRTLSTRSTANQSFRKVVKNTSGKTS

Chain of Tyrosine-protein kinase Blk (Homo sapiens) (P51451 2-505 limits assumed): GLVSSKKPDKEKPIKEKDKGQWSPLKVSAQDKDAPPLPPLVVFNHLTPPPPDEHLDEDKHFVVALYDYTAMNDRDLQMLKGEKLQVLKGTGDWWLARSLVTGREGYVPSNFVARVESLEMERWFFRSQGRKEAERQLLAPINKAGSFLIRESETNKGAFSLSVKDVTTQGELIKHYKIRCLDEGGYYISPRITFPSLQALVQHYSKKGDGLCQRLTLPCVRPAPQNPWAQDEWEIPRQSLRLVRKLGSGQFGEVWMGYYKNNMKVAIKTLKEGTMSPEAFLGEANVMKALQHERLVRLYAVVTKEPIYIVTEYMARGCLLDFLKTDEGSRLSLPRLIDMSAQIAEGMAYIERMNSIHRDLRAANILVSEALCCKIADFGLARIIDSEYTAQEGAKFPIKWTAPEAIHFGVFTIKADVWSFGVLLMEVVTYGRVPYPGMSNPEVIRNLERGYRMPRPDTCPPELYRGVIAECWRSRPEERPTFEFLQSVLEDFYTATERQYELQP
Chain of Activated CDC42 kinase 1 (Homo sapiens) (Q07912 whole entry, looked up): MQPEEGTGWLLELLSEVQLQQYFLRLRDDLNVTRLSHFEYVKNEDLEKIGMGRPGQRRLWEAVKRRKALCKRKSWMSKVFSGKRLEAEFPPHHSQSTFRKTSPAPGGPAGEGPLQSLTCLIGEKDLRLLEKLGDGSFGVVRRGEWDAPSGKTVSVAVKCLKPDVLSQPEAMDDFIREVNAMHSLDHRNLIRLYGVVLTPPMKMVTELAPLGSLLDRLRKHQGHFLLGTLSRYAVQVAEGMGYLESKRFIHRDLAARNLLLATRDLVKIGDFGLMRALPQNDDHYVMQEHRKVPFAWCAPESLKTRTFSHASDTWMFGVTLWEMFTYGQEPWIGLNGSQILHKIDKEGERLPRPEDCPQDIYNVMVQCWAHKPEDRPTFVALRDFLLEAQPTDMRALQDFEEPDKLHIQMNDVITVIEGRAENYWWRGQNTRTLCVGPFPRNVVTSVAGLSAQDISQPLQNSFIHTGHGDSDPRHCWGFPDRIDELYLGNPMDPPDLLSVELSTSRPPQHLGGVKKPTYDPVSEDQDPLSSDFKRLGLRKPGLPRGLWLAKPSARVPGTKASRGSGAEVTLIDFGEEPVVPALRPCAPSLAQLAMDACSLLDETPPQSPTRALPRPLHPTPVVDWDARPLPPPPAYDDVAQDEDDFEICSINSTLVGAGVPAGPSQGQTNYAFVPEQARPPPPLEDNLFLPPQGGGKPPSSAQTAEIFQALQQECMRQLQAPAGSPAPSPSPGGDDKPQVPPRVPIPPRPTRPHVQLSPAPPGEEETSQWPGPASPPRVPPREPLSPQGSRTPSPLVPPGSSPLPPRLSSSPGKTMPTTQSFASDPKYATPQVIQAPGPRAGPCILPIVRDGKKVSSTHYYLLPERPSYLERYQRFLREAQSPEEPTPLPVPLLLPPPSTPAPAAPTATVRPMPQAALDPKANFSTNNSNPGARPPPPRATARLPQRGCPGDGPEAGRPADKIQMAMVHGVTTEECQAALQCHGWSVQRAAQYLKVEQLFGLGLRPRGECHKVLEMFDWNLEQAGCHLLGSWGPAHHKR
Chain of Dual specificity protein kinase CLK2 (Homo sapiens) (P49760 whole entry, looked up, the tested form may be a part): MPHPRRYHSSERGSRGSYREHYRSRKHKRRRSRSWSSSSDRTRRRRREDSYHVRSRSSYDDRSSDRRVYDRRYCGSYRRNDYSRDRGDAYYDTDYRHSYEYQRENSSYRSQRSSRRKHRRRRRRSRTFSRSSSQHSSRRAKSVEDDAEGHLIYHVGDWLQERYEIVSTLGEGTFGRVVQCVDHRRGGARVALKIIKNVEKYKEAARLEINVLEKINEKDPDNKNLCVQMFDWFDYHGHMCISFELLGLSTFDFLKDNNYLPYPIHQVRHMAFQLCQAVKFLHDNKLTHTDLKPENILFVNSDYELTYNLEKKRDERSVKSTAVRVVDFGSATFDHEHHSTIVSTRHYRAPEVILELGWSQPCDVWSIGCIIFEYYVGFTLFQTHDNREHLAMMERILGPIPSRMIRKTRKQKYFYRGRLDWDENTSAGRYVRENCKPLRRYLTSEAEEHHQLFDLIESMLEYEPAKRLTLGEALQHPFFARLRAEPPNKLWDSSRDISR
Chain of Tyrosine-protein kinase Lck (Homo sapiens) (P06239 2-509 limits assumed): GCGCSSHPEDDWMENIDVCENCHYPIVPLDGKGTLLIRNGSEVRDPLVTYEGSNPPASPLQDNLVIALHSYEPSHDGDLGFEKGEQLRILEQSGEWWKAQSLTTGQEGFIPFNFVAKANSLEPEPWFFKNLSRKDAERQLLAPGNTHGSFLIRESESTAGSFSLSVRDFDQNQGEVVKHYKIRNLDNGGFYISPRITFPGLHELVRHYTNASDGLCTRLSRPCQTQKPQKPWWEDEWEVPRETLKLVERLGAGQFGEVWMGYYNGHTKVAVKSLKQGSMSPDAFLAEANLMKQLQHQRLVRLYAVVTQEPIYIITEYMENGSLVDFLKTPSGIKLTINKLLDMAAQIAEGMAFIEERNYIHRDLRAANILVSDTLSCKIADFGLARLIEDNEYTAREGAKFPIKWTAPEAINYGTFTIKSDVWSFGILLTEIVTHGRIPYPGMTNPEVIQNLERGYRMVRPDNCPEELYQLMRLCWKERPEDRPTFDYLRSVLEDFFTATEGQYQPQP

Usually inhibition stands for the relative decrease from the control value, in per cent. With `Oc1n[nH]c2nnc(-c3c(-c4ccccc4)nn4ccccc34)cc12`, the inhibition was 8.98% in assay [1]; 2.09% in assay [2]; 2.49% in assay [3]; -2.78% in assay [4]; 9.6% in assay [5]; -0.49% in assay [6]. In addition, the inhibition in [7] is -4.26%; in assay [8], 8.78%; in [9], -0.71%; in assay [10], 3.01%.

As for `Nc1n[nH]c2nnc(-c3c(-c4ccccc4)nn4ccccc34)cc12`, the inhibition is 17.3% in assay [1]; 1.92% in [2]; -1.46% in assay [3]; -0.55% in assay [4]; 4.73% in assay [5]; 4.93% in assay [6]. The inhibition in assay [7] was -9.53%; in assay [8] it was 9.06%; in assay [9] it was -0.43%; in [10] it was -0.45%.
